{"source": "patent US6875760B2", "about": "(Novo Nordisk A/S, priority 1999, dated 2005)", "data": [{"biological_target": "T1, cloned human glucagon receptor (Homo sapiens, UniProt P47871)", "T1 construct": "expressed in transfected cells; plasma membrane preparation", "T1 sequence (P47871 26-477)": "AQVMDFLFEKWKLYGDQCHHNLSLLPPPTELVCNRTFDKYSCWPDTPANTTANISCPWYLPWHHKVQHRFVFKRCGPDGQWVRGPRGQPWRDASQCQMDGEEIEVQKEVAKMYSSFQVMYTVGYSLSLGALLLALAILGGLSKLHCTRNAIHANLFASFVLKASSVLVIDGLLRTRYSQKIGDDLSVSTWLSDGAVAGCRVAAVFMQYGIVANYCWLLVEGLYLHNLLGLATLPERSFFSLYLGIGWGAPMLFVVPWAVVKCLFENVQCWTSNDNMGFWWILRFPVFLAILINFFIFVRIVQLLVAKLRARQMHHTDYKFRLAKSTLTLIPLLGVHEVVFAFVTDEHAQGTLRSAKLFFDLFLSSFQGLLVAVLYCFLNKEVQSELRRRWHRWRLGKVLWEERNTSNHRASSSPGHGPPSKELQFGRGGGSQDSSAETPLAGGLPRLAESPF", "assay": "Glucagon Binding Assay (I)", "conditions": "at 1 μM", "experimental": "(§1) Binding of compounds to the glucagon receptor was determined in a competition binding assay using the cloned human glucagon receptor.\n(§2) Receptor binding was assayed using cloned human receptor (Lok et al., Gene 140, 203-209 (1994)). The receptor inserted in the pLJ6′ expression vector using EcoRI/SSt1 restriction sites (Lok et al.) was expressed in a baby hamster kidney cell line (A3 BHK 570-25).\n(§3) Plasma membranes were prepared by growing cells to confluence, detaching them from the surface and resuspending the cells in cold buffer (10 mM tris/HCl, pH 7.4 containing 30 mM NaCl, 1 mM dithiothreitol, 5 mg/L leupeptin (Sigma), 5 mg/L pepstatin (Sigma), 100 mg/L bacitracin (Sigma) and 15 mg/L recombinant aprotinin (Novo Nordisk A/S)), homogenization by two 10-s bursts using a Polytron PT 10-35 homogenizer (Kinematica), and centrifugation upon a layer of 41 w/v % sucrose at 95.000×g for 75 min. The white band located between the two layers was diluted in buffer and centrifuged at 40.000×g for 45 min. The precipitate containing the plasma membranes was suspended in buffer and stored at −80° C. until use. Glucagon was iodinated according to the chloramine T method (Hunter and Greenwood, Nature 194, 495 (1962)) and purified using anion exchange chromatography (Jørgensen et al., Hormone and Metab. Res. 4, 223-224 (1972). The specific activity was 460 μCi/μg on the day of iodination. Tracer was stored at −18° C. in aliquots and were used immediately after thawing.\n(§4) Binding assays were carried out in triplicate in filter microtiter plates (MADV N65, Millipore). The buffer used in this assay was 50 mM HEPES, 5 mM EGTA, 5 mM MgCl2, 0.005% tween 20, pH 7.4. Glucagon was dissolved in 0.05 M HCl, added an equal amount (w/w) of HSA and freeze-dried. On the day of use, it was dissolved in water and diluted in buffer to the desired concentrations.\n(§5) Test compounds were dissolved and diluted in DMSO. 140 μL buffer, 25 μL glucagon or buffer, and 10 μL DMSO or test compound were added to each well. Tracer (50.000 cpm) was diluted in buffer and 25 μL were added to each well. 1-4 μg freshly thawed plasma membrane protein diluted in buffer was then added in aliquots of 25 μL to each well. Plates were incubated at 30° C. for 2 hours. Non-specific binding was determined with 10^−6 M of glucagon. Bound tracer and unbound tracer were then separated by vacuum filtration (Millipore vacuum manifold). The plates were washed with 2×100 μL buffer/well. The plates were air dried for a couple of hours, whereupon the filters were separated from the plates using a Millipore Puncher. The filters were counted in a gamma counter.", "units": {"Glu Bd Assay (I) Effect, 100-Residual binding (%) at 1 μM": "%"}, "values": [{"smiles": "CC(C)(C)C1CCC(N(Cc2ccc(C(=O)NCCC(=O)O)cc2)C(=O)Cc2csc3ccccc23)CC1", "note": "(stereo not shown) [Example 3, 3-(4-{[N-(2-Benzo[b]thiophen-3-yl-acetyl)-N-(4-tert-butylcyclohexyl)amino]methyl}benzoylamino)propionic acid]", "Glu Bd Assay (I) Effect, 100-Residual binding (%) at 1 μM": 26.2}, {"smiles": "CC(C)(C)C1CCC(N(Cc2ccc(C(=O)NCCC(=O)O)cc2)C(=O)c2cc3ccccc3s2)CC1", "note": "(stereo not shown) [Example 4, 3-(4-{[N-(Benzo[b]thiophen-2-carbonyl)-N-(4-tert-butylcyclohexyl)amino]methyl}benzoylamino)propionic acid]", "Glu Bd Assay (I) Effect, 100-Residual binding (%) at 1 μM": 28.5}]}, {"biological_target": "T1, cloned human glucagon receptor", "assay": "Glucagon Binding Assay (I)", "conditions": "plasma membranes of BHK cells expressing the receptor, 125I-glucagon tracer; read-out: Glu Bd Assay (I) IC50", "experimental": "as §1, §2, §3, §4, §5", "units": {"IC50": "µM"}, "values": [{"smiles": "O=C(O)CCNC(=O)c1ccc(CN(C(=O)Nc2ccc(OC(F)(F)F)cc2)C2CCCCC2)cc1", "IC50": 2.7}, {"smiles": "COC(C)(C)C1CCC(N(Cc2ccc(C(=O)NCCC(=O)O)cc2)C(=O)Nc2ccc(OC(F)(F)F)cc2)CC1", "note": "(stereo not shown)", "IC50": 1.28}, {"smiles": "O=C(O)CCNC(=O)c1ccc(CN(C(=O)Nc2cc(Cl)cc(Cl)c2)C2CCC3(CC2)SCCS3)cc1", "IC50": 1.34}, {"smiles": "O=C(O)CCNC(=O)c1ccc(CN(CC(c2ccccc2)c2ccccc2)C(=O)c2csc3ccc(Cl)cc23)cc1", "note": "[Example 1, 3-(4-{[N-(5-Chlorobenzo[b]thiophen-3-carbonyl)-N-(2,2-diphenylethyl)amino]methyl}benzoylamino)propionic acid]", "IC50": 0.12}, {"smiles": "O=C(O)CCNC(=O)c1ccc(CN(CCc2ccc(Cl)c(Cl)c2)C(=O)c2csc3ccc(Cl)cc23)cc1", "note": "[Example 2, 3-(4-{[N-(5-Chlorobenzo[b]thiophen-3-carbonyl)-N-(3,4-dichlorophenylethyl)amino]methyl}benzoylamino)propionic acid]", "IC50": 1.3}]}, {"biological_target": "T1, cloned human glucagon receptor", "assay": "Glucagon Binding Assay (II)", "conditions": "not given", "units": {"IC50": "µM"}, "values": [{"smiles": "CC(C)(C)C1CCC(N(Cc2ccc(C(=O)NCCC(=O)O)cc2)C(=O)Nc2ccc(Cl)c(Cl)c2)CC1", "note": "(stereo not shown) [drawing 1169]", "IC50": 0.226}, {"smiles": "CC(C)c1ccc(NC(=O)N(Cc2ccc(C(=O)NCCC(=O)O)cc2)C2CCC(C(C)(C)C)CC2)cc1", "note": "(stereo not shown) [drawing 1170]", "IC50": 0.035}]}, {"biological_target": "T1, cloned human glucagon receptor", "assay": "Glucagon Binding Assay (II)", "conditions": "plasma membranes of BHK cells expressing the receptor; read-out: Glu Bd Assay (II) IC50", "units": {"IC50": "µM"}, "values": [{"smiles": "O=C(O)CCNC(=O)c1ccc(CN(C(=O)Nc2ccc(OC(F)(F)F)cc2)c2ccc(C3CCCCC3)cc2)cc1", "note": "[Example 179, 3-{4-[1-(4-Cyclohexylphenyl)-3-(4-trifluoromethoxyphenyl)ureidomethyl]benzoylamino}propionic acid]", "IC50": 0.033}, {"smiles": "O=C(O)CCNC(=O)c1ccc(CN(C(=O)Nc2cc(Cl)cc(Cl)c2)c2ccc(C3CCCCC3)cc2)cc1", "note": "[Example 232, 3-{4-[1-(4-Cyclohexylphenyl)-3-(3,5-dichlorophenyl)ureidomethyl]benzoylamino}propionic acid]", "IC50": 0.017}, {"smiles": "O=C(Nc1nn[nH]n1)c1ccc(CN(C(=O)Nc2ccc(Cl)c(C(F)(F)F)c2)c2ccc(C3CCCCC3)cc2)cc1", "note": "[Example 282, 4-[3-(4-Chloro-3-trifluoromethylphenyl)-1-(4-cyclohexylphenyl)ureidomethyl]-N-(2H-tetrazol-5-yl)benzamide]", "IC50": 0.003}, {"smiles": "CC(C)(C)C1CCC(N(Cc2ccc(C(=O)Nc3nn[nH]n3)cc2)C(=O)C=Cc2c(Cl)cccc2Cl)CC1", "note": "(stereo not shown) [Example 477, 4-({(4-tert-Butylcyclohexyl)-[3-(2,6-dichlorophenyl)acryloyl]amino}methyl)-N-(2H-tetrazol-5-yl)benzamide]", "IC50": 0.224}, {"smiles": "O=C(Nc1nn[nH]n1)c1ccc(CN(C(=O)NCc2ccc(Cl)c(Cl)c2)c2ccc(C3CCCCC3)cc2)cc1", "note": "[Example 595, 4-[1-(4-Cyclohexylphenyl)-3-(3,4-dichlorobenzyl)ureidomethyl}-N-(2H-tetrazol-5-yl)benzamide]", "IC50": 0.039}, {"smiles": "C[C@H](NC(=O)N(Cc1ccc(C(=O)Nc2nn[nH]n2)cc1)c1ccc(C2CCCCC2)cc1)c1ccccc1", "note": "[Example 596, 4-[1-(4-Cyclohexylphenyl)-3-((1S)-1-phenylethyl)ureidomethyl]-N-(2H-tetrazol-5-yl)benzamide]", "IC50": 0.112}, {"smiles": "N#Cc1ccc(NC(=O)N(Cc2ccc(C(=O)Nc3nn[nH]n3)cc2)c2ccc(C3CCCCC3)cc2)cc1C(F)(F)F", "note": "[Example 597, 4-[1-(4-Cyclohexylphenyl)-3-(4-cyano-3-trifluoromethylphenyl)ureidomethyl]-N-(2H-tetrazol-5-yl)benzamide]", "IC50": 0.007}, {"smiles": "C[C@@H](NC(=O)N(Cc1ccc(C(=O)Nc2nn[nH]n2)cc1)c1ccc(C2CCCCC2)cc1)c1ccccc1", "note": "[Example 598, 4-[1-(4-Cyclohexylphenyl)-3-((1R)-1-phenylethyl)ureidomethyl]-N-(2H-tetrazol-5-yl)benzamide]", "IC50": 0.207}, {"smiles": "O=C(O)CCNC(=O)c1ccc(CN(C(=O)Nc2cc(Cl)cc(Cl)c2)c2ccc(C3=CCCCC3)cc2)cc1", "note": "[Example 605, 3-{4-[1-(4-Cyclohex-1-enylphenyl)-3-(3,5-dichlorophenyl)ureidomethyl]benzoylamino}propionic acid]", "IC50": 0.015}, {"smiles": "O=C(O)CCNC(=O)c1ccc(CN(C(=O)NCc2ccc(Cl)c(Cl)c2)c2ccc(C3CCCCC3)cc2)cc1", "note": "[Example 606, 3-{4-[1-(4-Cyclohexylphenyl)-3-(3,4-dichlorobenzyl)ureidomethyl]benzoylamino}propionic acid]", "IC50": 0.098}, {"smiles": "O=C(O)CCNC(=O)c1ccc(CN(C(=O)Nc2ccc3[nH]ccc3c2)c2ccc(C3CCCCC3)cc2)cc1", "note": "[Example 607, 3-{4-[1-(4-Cyclohexylphenyl)-3-(1H-indol-5-yl)ureidomethyl]benzoylamino}propionic acid]", "IC50": 1.85}, {"smiles": "C[C@@H](NC(=O)N(Cc1ccc(C(=O)NCCC(=O)O)cc1)c1ccc(C2CCCCC2)cc1)c1ccccc1", "note": "[Example 608, 3-{4-[1-(4-Cyclohexylphenyl)-3-((1R)-1-phenylethyl)ureidomethyl]benzoylamino}propionic acid]", "IC50": 0.677}, {"smiles": "C[C@H](NC(=O)N(Cc1ccc(C(=O)NCCC(=O)O)cc1)c1ccc(C2CCCCC2)cc1)c1ccccc1", "note": "[Example 609, 3-{4-[1-(4-Cyclohexylphenyl)-3-((1S)-1-phenylethyl)ureidomethyl]benzoylamino}propionic acid]", "IC50": 0.726}, {"smiles": "C[C@@H](NC(=O)N(Cc1ccc(C(=O)NCCC(=O)O)cc1)c1ccc(C2CCCCC2)cc1)c1ccc2ccccc2c1", "note": "[Example 610, 3-{4-[1-(4-Cyclohexylphenyl)-3-[(1R)-1-(2-naphthyl)ethyl]ureidomethyl]benzoylamino}propionic acid]", "IC50": 0.118}, {"smiles": "CCOC(=O)C(C)(C)C1CCC(N(Cc2ccc(C(=O)NCCC(=O)O)cc2)C(=O)Nc2ccc(OC(F)(F)F)cc2)CC1", "note": "(stereo not shown) [Example 611, 2-{4-[1-[4-(2-Carboxyethylcarbamoyl)benzyl]-3-(4-trifluoromethoxyphenyl)ureido]cyclohexyl}-2-methylpropionic acid ethyl ester]", "IC50": 0.437}, {"smiles": "CC(C)(C)C1CCC(N(Cc2ccc(C(=O)NCCC(=O)O)cn2)C(=O)Nc2ccc(OC(F)(F)F)cc2)CC1", "note": "(stereo not shown) [Example 612, 3-({6-[1-(4-tert-Butylcyclohexyl)-3-(4-trifluoromethoxyphenyl)ureidomethyl]pyridine-3-carbonyl}amino)propionic acid]", "IC50": 0.161}, {"smiles": "CC(C)(C)[C@H]1CC[C@H](N(Cc2ccc(C(=O)NCCC(=O)O)cc2)Cc2cccc(S(C)(=O)=O)c2)CC1", "note": "[Example 613, 3-(4-{[(trans-4-tert-Butylcyclohexyl)-(3-methylsulfonylbenzyl)amino]methyl}benzoylamino)propionic acid]", "IC50": 0.578}, {"smiles": "CC(C)(C)C1CCC(N(Cc2ccc(C(=O)NCCC(=O)O)cc2)C(=O)Nc2ccc(Oc3ccccc3)cc2)CC1", "note": "(stereo not shown) [drawing 1168]", "IC50": 0.121}, {"smiles": "CC(C)(C)C1CCC(N(Cc2ccc(C(=O)NCCC(=O)O)cc2)NC(=O)c2ccc(OC(F)(F)F)cc2)CC1", "note": "(stereo not shown) [drawing 1171]", "IC50": 0.108}, {"smiles": "O=C(O)CCNC(=O)c1ccc(CN(C(=O)Nc2ccc(OC(F)(F)F)cc2)C2CCC3CCCCC3C2)cc1", "note": "(stereo not shown) [drawing 1173]", "IC50": 0.426}, {"smiles": "CCCCc1ccc(N(Cc2ccc(C(=O)NCCC(=O)O)cc2)C(=O)Nc2ccc(OC(F)(F)F)cc2)cc1", "note": "[drawing 1186]", "IC50": 0.013}]}, {"biological_target": "T2, human glucagon receptor (Homo sapiens, UniProt P47871)", "T2 construct": "expressed in transfected cells; host or cells: BHK (baby hamster kidney) cells", "T2 sequence (P47871 26-477)": "as above", "assay": "Glucagon Binding Assay (III)", "conditions": "BHK cell membranes, WGA SPA beads, 125I-glucagon; read-out: Glu Bd Assay (III) IC50", "how_it_was_run": "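Membranes from BHK cells transfected with the human receptor, prepared at 4 °C, were used in a WGA-bead scintillation proximity binding format. Plates were shaken for 4 hours, left to settle 8–48 hours and then counted. Non-specific binding was defined with 500 nM glucagon.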", "units": {"IC50": "µM"}, "values": [{"smiles": "O=C(O)CCNC(=O)c1ccc(CN(C(=O)Nc2ccc(OC(F)(F)F)cc2)c2ccc(C3CCCCC3)cc2)cc1", "note": "[Example 179, 3-{4-[1-(4-Cyclohexylphenyl)-3-(4-trifluoromethoxyphenyl)ureidomethyl]benzoylamino}propionic acid]", "IC50": 0.051}, {"smiles": "O=C(O)CCNC(=O)c1ccc(CN(C(=O)Nc2cc(Cl)cc(Cl)c2)c2ccc(C3CCCCC3)cc2)cc1", "note": "[Example 232, 3-{4-[1-(4-Cyclohexylphenyl)-3-(3,5-dichlorophenyl)ureidomethyl]benzoylamino}propionic acid]", "IC50": 0.03}, {"smiles": "O=C(Nc1nn[nH]n1)c1ccc(CN(C(=O)Nc2ccc(Cl)c(C(F)(F)F)c2)c2ccc(C3CCCCC3)cc2)cc1", "note": "[Example 282, 4-[3-(4-Chloro-3-trifluoromethylphenyl)-1-(4-cyclohexylphenyl)ureidomethyl]-N-(2H-tetrazol-5-yl)benzamide]", "IC50": 0.021}, {"smiles": "CC(C)(C)C1CCC(N(Cc2ccc(C(=O)Nc3nn[nH]n3)cc2)C(=O)C=Cc2c(Cl)cccc2Cl)CC1", "note": "(stereo not shown) [Example 477, 4-({(4-tert-Butylcyclohexyl)-[3-(2,6-dichlorophenyl)acryloyl]amino}methyl)-N-(2H-tetrazol-5-yl)benzamide]", "IC50": 0.464}]}]}
